In patent US20040096498A1, “Oral pharmaceutical delivery system with improved sustained release” (priority 2002, published 2004):

Test: Single oral dose pharmacokinetic study in dogs, varying the testosterone dose (Example 1)
Format: in vivo, dogs (female beagles)
Conditions: for Average Serum Testosterone / concentration at 0.5 h / concentration at 1 h / concentration at 2 h / concentration at 4 h / concentration at 5 h / concentration at 6 h / concentration at 8 h / concentration at 24 h: single oral; for Average Serum Testosterone: time 0 h (pre-dose); for Sustained release time, Lipid Suspension Time: time serum levels fell between about 300 and 1100 ng/dl; for concentration at 0.5 h / concentration at 1 h / concentration at 2 h / concentration at 4 h / concentration at 5 h / concentration at 6 h / concentration at 8 h / concentration at 24 h: female, beagle, dog, serum
Description: A study using six dogs (female beagles) was made to obtain preliminary pharmacokinetic data following a single oral dose of the delivery system. The dogs were 13-24 months old, and weighed in the range of 10.4 to 13.2 kg.
The dosing was done in four sequential one day intervals with a minimum two day rest period in between each interval. Blood was drawn immediately before the dose was administered. […] The animals were given the placebo or test article, as described above, at approximately the same time each day, immediately prior to being fed. The dog ate its food within 30 minutes of the dose being administered.
Blood samples were collected pre-dose and at 0.5, 1, 2, 4, 5, 6, 8 and 24 hours post dosing. At each time point, a minimum of 3 mL whole blood (or minimum volume determined by assay requirement) were collected by venipuncture of the jugular vein into non-heparinized Vacutainer tubes. The blood was centrifuged to obtain serum, which was kept on ice until placed into an appropriately sized vial, and frozen at −70° C. The samples remained frozen until delivered on dry ice to the lab for analysis. The lab used radioimmunoassay to analyse for testosterone.
Determining the sustained release properties of the samples in Example 1 by evaluating the amount of time the blood serum levels fell between about 300 and 1100 ng/dl, the sustained release times for Example 1 are given in Table 3. It is desirable to have release properties that are fairly constant with time. It is undesirable to have sharp peaks or drops in serum concentration of the drug.

**Q.** Which “Average Serum Testosterone” value (dose 25 mg) does the source give for `C[C@]12CC[C@H]3[C@@H](CCC4=CC(=O)CC[C@@]43C)[C@@H]1CC[C@@H]2O` [Testosterone, testosterone] here?
**A.** Its value is 0 ng/dL.

**Q.** What about the “Sustained release time, Lipid Suspension Time” value (from here on “Sustained release time”) (dose 25 mg) of the same molecule?
**A.** The value was 1 h.

**Q.** What about the “Average Serum Testosterone” value (dose 50 mg) of the same molecule?
**A.** Its value is 1 ng/dL.

**Q.** And the “Sustained release time” value (dose 50 mg)?
**A.** Its value is 0 h.

**Q.** What about the “Average Serum Testosterone” value (dose 100 mg) of the same molecule?
**A.** Its value is 0 ng/dL.

**Q.** And the “Sustained release time” value (dose 100 mg)?
**A.** Its value is 7 h.

**Q.** What about the “Average Serum Testosterone” value (dose 250 mg) of the same molecule?
**A.** Its value is 26 ng/dL.

**Q.** What about the “Sustained release time” value (dose 250 mg) of the same molecule?
**A.** The value was 7 h.

**Q.** What about the concentration at 0.5 h (dose 25 mg) of the same molecule?
**A.** The concentration at 0.5 h was 2.86 ng/mL.

**Q.** And the concentration at 1 h (dose 25 mg)?
**A.** The concentration at 1 h was 3.9 ng/mL.

**Q.** And the concentration at 2 h (dose 25 mg)?
**A.** Its concentration at 2 h is 4.25 ng/mL.

**Q.** What about the concentration at 4 h (dose 25 mg) of the same molecule?
**A.** Its concentration at 4 h is 1.18 ng/mL.

**Q.** And the concentration at 5 h (dose 25 mg)?
**A.** Its concentration at 5 h is 0.35 ng/mL.

**Q.** And the concentration at 6 h (dose 25 mg)?
**A.** The concentration at 6 h was 0.53 ng/mL.

**Q.** And the concentration at 8 h (dose 25 mg)?
**A.** The concentration at 8 h was 0.23 ng/mL.

**Q.** And the concentration at 24 h (dose 25 mg)?
**A.** The concentration at 24 h was 0.01 ng/mL.

**Q.** What about the concentration at 0.5 h (dose 50 mg) of the same molecule?
**A.** Its concentration at 0.5 h is 1.54 ng/mL.

**Q.** What about the concentration at 1 h (dose 50 mg) of the same molecule?
**A.** Its concentration at 1 h is 2.86 ng/mL.

**Q.** And the concentration at 2 h (dose 50 mg)?
**A.** Its concentration at 2 h is 3.76 ng/mL.

**Q.** And the concentration at 4 h (dose 50 mg)?
**A.** Its concentration at 4 h is 2.88 ng/mL.

**Q.** What about the concentration at 5 h (dose 50 mg) of the same molecule?
**A.** The concentration at 5 h was 2.15 ng/mL.

**Q.** And the concentration at 6 h (dose 50 mg)?
**A.** Its concentration at 6 h is 1.07 ng/mL.

**Q.** And the concentration at 8 h (dose 50 mg)?
**A.** Its concentration at 8 h is 0.54 ng/mL.

**Q.** What about the concentration at 24 h (dose 50 mg) of the same molecule?
**A.** Its concentration at 24 h is 0.07 ng/mL.

**Q.** What about the concentration at 0.5 h (dose 100 mg) of the same molecule?
**A.** Its concentration at 0.5 h is 2.7 ng/mL.

**Q.** What about the concentration at 1 h (dose 100 mg) of the same molecule?
**A.** The concentration at 1 h was 3.09 ng/mL.

**Q.** And the concentration at 2 h (dose 100 mg)?
**A.** The concentration at 2 h was 4.5 ng/mL.

**Q.** What about the concentration at 4 h (dose 100 mg) of the same molecule?
**A.** The concentration at 4 h was 5.22 ng/mL.

**Q.** And the concentration at 5 h (dose 100 mg)?
**A.** Its concentration at 5 h is 6.18 ng/mL.

**Q.** What about the concentration at 6 h (dose 100 mg) of the same molecule?
**A.** The concentration at 6 h was 3.57 ng/mL.

**Q.** And the concentration at 8 h (dose 100 mg)?
**A.** Its concentration at 8 h is 4.22 ng/mL.

**Q.** And the concentration at 24 h (dose 100 mg)?
**A.** The concentration at 24 h was 0.02 ng/mL.

**Q.** And the concentration at 0.5 h (dose 250 mg)?
**A.** Its concentration at 0.5 h is 2.64 ng/mL.

**Q.** And the concentration at 1 h (dose 250 mg)?
**A.** The concentration at 1 h was 5.55 ng/mL.

**Q.** And the concentration at 2 h (dose 250 mg)?
**A.** The concentration at 2 h was 8.35 ng/mL.

**Q.** And the concentration at 4 h (dose 250 mg)?
**A.** The concentration at 4 h was 10.3 ng/mL.

**Q.** What about the concentration at 5 h (dose 250 mg) of the same molecule?
**A.** The concentration at 5 h was 8.29 ng/mL.

**Q.** And the concentration at 6 h (dose 250 mg)?
**A.** Its concentration at 6 h is 9.8 ng/mL.

**Q.** What about the concentration at 8 h (dose 250 mg) of the same molecule?
**A.** Its concentration at 8 h is 7.57 ng/mL.

**Q.** And the concentration at 24 h (dose 250 mg)?
**A.** Its concentration at 24 h is 0.08 ng/mL.
